Assay results: patent US10757944B2, “Ozone treatment for elimination of pathogens” (priority 2016, dated 2020)

Tested on: mold and yeast
Assay: Additional ozone exposure tests on cannabis flower or trim, mold and yeast CFU
Assay type: cell-based
Conditions: ozone 200 ppm
Experimental: Some additional ozone exposure tests were performed with cannabis flower or trim on a variety of commercially available strains using an embodiment of a disclosed pathogen reduction device. In each experiment (disclosed in Table 6) a reduction of mold and yeast CFU/g was measured (as disclosed above using 3M® Petrifilm® Rapid Yeast and Mold Count Plate and Product Instruction) after treating different weights of cannabis with an ozone concentration of 200 ppm for between 20 and 60 minutes.

## O=[O+][O-] [ozone]
Flower, Hybrid, 5 lbs, 60:00 min, Initial CFU 77,000
  Ending CFU: 4500 CFU
Flower, Hybrid/Indica, 1 lb, 45:00 min, Initial CFU 2,200
  Ending CFU: 220 CFU
Flower, Hybrid/Indica, 6 lbs, 25:00 min, Initial CFU 51,750
  Ending CFU: 30,000-32,000 CFU
Flower, Hybrid/Indica, weight NA, 60:00 min, Initial CFU 110,000
  Ending CFU: 3,000 CFU
Flower, Hybrid/Sativa, 1 lb, 20:00 min, Initial CFU 100,000
  Ending CFU: 5,400-5,500 CFU
Flower, Indica, 3 lbs, 60:00 min, Initial CFU 320,000
  Ending CFU: 91,000 CFU
Trim, Hybrid/Indica, 6 lbs, 25:00 min, Initial CFU 17,000
  Ending CFU: 800-11,000 CFU
Trim, Hybrid/Sativa, 3 lbs, 60:00 min, Initial CFU 50,000
  Ending CFU: 3,000 CFU
